Three molecules from patent US4387086A, “Organic compounds” (Sandoz Ltd., priority 1979, dated 1983) can be followed below.

This assay concerns antiserum of Example 4. In words: Cross-reactivity of the antiserum: inhibition by 50% of the reaction between antibody (antiserum) and tracer antigen (tritiated thioridazine). To be noted: relative to thioridazine; tracer tritiated thioridazine. The format is binding, sheep. The text has this: The selectivity of the method can be determined as follows.
The main metabolites of thioridazine having a structure closely related to the parent compound are thioridazine-derivatives oxidized in the 2-methylthio side chain, more specifically the sulfoxide (A) and the sulfone (B), and also demethyl-thioridazine (C). The cross-reactivity of the antiserum was examined by employing a mixture of thioridazine, its sulfoxide A and sulfone B and its demethyl-thioridazine C in the amount required to inhibit the reaction between antibody (antiserum) and tracer antigen (tritiated thioridazine) by 50%.
With `CN1CCCCC1CCN1c2ccccc2Sc2ccc([S+](C)[O-])cc21` (stereo not drawn) [A], the “inhibitory concentration where 50% binding to the antiserum of Example 4 occurs, times higher than that of the parent compound” value was 67 times. Take `CN1CCCCC1CCN1c2ccccc2Sc2ccc(S(C)(=O)=O)cc21` (stereo not drawn) [B]: the “inhibitory concentration where 50% binding to the antiserum of Example 4 occurs, times higher than that of the parent compound” value is 93 times. Consider `CSc1ccc2c(c1)N(CCC1CCCCN1)c1ccccc1S2` (stereo not drawn) [C, demethyl-thioridazine], for which the “inhibitory concentration where 50% binding to the antiserum of Example 4 occurs, times higher than that of the parent compound” value is 111 times.
